Here are results for two molecules from patent US20200038418A1, “METHODS OF TREATING AUTISM SPECTRUM DISORDER USING AMINOSTEROL COMPOSITIONS” (Enterin, Inc., priority 2018, published 2020).

The conditions of series [1]: single and repeat intravenous administration, alone or in combination; cited from earlier work.
Series [2] concerns IPANs (intrinsic primary afferent neuron). Put plainly: Perfusion of isolated segment of bowel from the PD mouse model. The settings on record: perfusion through the lumen of isolated bowel segment from PD mouse model.
For series [3] the following is noted: systemic administration, mice; cited from earlier work.
Series [4] relates to mice with constipation due to overexpression of human αS. The series can be described thus: Gastrointestinal motility in mouse models of PD. It is filed as in vivo.
For series [5] the following is noted: intravenous administration, prior studies; cited from earlier work.

As for `CC(C)[C@@H](CC[C@@H](C)[C@H]1CC[C@H]2[C@@H]3[C@H](O)C[C@H]4C[C@@H](NCCCNCCCCN)CC[C@]4(C)[C@H]3CC[C@]12C)OS(=O)(=O)O.C[C@H](O)C(=O)O.C[C@H](O)C(=O)O` [squalamine dilactate salt], in series [1], the dose well tolerated result is given as “at least 300 mg/m^2”.

Take `CC(C)[C@@H](CC[C@@H](C)[C@H]1CC[C@H]2[C@@H]3[C@H](O)C[C@H]4C[C@@H](NCCCNCCCCN)CC[C@]4(C)[C@H]3CC[C@]12C)OS(=O)(=O)O` [squalamine]: the “effect on IPANs and peristaltic contractions” value in series [2] is “excitation of IPANs”. Also, the clearance and excretion result in series [3] was “cleared by the liver and excreted as the intact molecule”. Besides, the gastro-intestinal motility result in series [4] (orally administered, mice with constipation due to overexpression of human αS) is reported as “stimulates gastro-intestinal motility”. The “effect on gastrointestinal dysmotility” value in series [4] (several mouse models of PD) is given as “reverse gastrointestinal dysmotility”. In series [5], the gastrointestinal motility entry is given as “not associated with increased gastrointestinal motility”.
